Measurements: paper PMC10571761, “Transgenic Mice Expressing Functional TCRs Specific to Cardiac Myhc-α 334–352 on Both CD4 and CD8 T Cells Are Resistant to the Development of Myocarditis on C57BL/6 Genetic Background” (Cells, 2023)
Peptide text beside a SMILES is read from it.

Tests used:
IA^k = target: T1, IA^k (Mus musculus, UniProt P01910+P06343); experiment: IA^k binding assay (DELFIA competition); details: soluble thrombin-cleaved IA^k; reference peptide biotinylated HEL 46–61; overnight RT; europium-labeled streptavidin, fluorescence 340/615 nm; mean ± SEM from three to five experiments, three replicates each; read-out: IC50 value, binding to IA^k molecules
T1 construct: After expressing soluble IA^k and IA^b monomers in a baculovirus system; CLIP peptide, released by thrombin cleavage (cleaved yes); made in house; host or cells: baculovirus system (insect cells; Sf9 is stated only for IA^b)

IA^b = target: T2, IA^b (Mus musculus, UniProt P14434+P14483); experiment: IA^b binding assay (DELFIA competition); details: soluble thrombin-cleaved IA^b (0.35 µg); competitor 0.00001 µM to 100 µM; biotinylated OVA 323–339 (50 µM) reference; pH 7.0 phosphate; overnight RT; fluorescence 340/615 nm; three to five experiments, three replicates each; read-out: IC50 value, binding to IA^b molecules
T2 construct: IA^b constructs were designed to contain the extracellular domains of IA^b-α and IA^b-β; CLIP 88–102 ([…]) with thrombin site (cleaved yes); made in house; host or cells: Sf9 insect cells (baculovirus)
T2 sequence (P14434 24-218 limits assumed): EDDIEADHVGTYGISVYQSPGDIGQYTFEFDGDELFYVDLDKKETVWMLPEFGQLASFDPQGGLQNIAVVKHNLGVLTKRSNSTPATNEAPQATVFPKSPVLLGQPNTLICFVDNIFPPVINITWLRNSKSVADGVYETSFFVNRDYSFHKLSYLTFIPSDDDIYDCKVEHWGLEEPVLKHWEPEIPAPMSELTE
T2 sequence (P14483 28-226 limits assumed): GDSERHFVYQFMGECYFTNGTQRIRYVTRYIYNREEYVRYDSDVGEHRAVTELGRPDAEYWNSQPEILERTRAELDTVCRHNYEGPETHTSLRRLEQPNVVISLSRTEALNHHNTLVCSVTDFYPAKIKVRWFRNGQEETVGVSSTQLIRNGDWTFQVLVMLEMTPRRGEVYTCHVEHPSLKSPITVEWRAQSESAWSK
From the text: To determine the binding affinity of Myhc-α 334–352 to IA^b, soluble IA^b molecules were expressed similarly to the IA^k molecule. Briefly, IA^b constructs were designed to contain the extracellular domains of IA^b-α and IA^b-β [43]. The IA^b-β construct consisted of the class II-associated invariant chain peptide (CLIP) 88–102 (VSQMRMATPLLMRPM) and thrombin site to release the CLIP [44]. After expressing the IA^b molecules in baculovirus using Sf9 cells and purifying on an anti-IA^b affinity column (clone, M5/114) (BioXCell, West Lebanon, NH, USA), they were cleaved with thrombin to obtain empty IA^b molecules. […] In addition, anti-IA^b (10 µg/mL) was coated onto white fluorescence 96-well plates (Nunc, Rochester, NY, USA) in 0.2 M sodium phosphate buffer, pH 6.8, overnight, followed by washing and blocking with 2% casein for 2 h at 37 °C. […] Europium-labeled streptavidin was added (1 µg/mL) in dissociation-enhanced lanthanide fluorescence immunoassay (DELFIA®) buffer and then the DELFIA®-enhancement solution (Perkin Elmer, Waltham, MA, USA). Fluorescence intensities were measured at wavelengths of 340/615 nm using a VICTOR® Multilabel Plate Reader (Perkin Elmer), and IC50 values were then determined. […]

A/J mice = details: immunization with CFA; cited from earlier work
From the text: Histologically, the disease process can be classified into lymphocytic, neutrophilic, eosinophilic, granulomatous, and giant cell myocarditis. Of these, lymphocytic myocarditis generally occurs with viral infections. Although most myocarditis-affected individuals may spontaneously recover, up to 20% of them can develop DCM, in which autoimmunity is suspected as an underlying mechanism. […] The immunogenic epitopes can be promiscuous in that they can bind multiple MHC alleles.

lymphocytes from Tg mice = experiment: Cytokine analysis, lymphocytes of immunized Tg mice; format: cell-based, TCR transgenic mice on C57BL/6 background; details: control peptide, two days
Description: Myhc-α 334–352 immunizations involved peptide/CFA emulsions containing Mycobacterium tuberculosis H37RA extract (Difco Laboratories, Detroit, MI, USA) with a final concentration of 5 mg/mL. The emulsions were administered subcutaneously (100 µg/mouse) in the inguinal and sternum regions on days 0 and 7. In some experiments, animals received emulsions in the left and right shoulders and on the right and left sides of the hip regions in split doses. Additionally, pertussis toxin (List Biological Laboratories, Campbell, CA, USA) was administered to animals intraperitoneally (100 ng/mouse) on days 0 and 2 after the first immunization.
Lymphocytes were obtained from wild-type (Wt) or Tg mice immunized with or without Myhc-α 334–352. […] Cytokines were analyzed using the LEGENDplex Murine Th cytokine Panel (12-plex or 13-plex; BioLegend). […] Beads were acquired by flow cytometry (FACSCalibur™), and concentrations of cytokines were determined using the LEGENDplex™ data analysis software suite (BioLegend). […]
Figure 6 Tg T cells produce mainly Th1 and Th17 cytokines. […] Cells were stimulated with or without Myhc-α 334–352 or OVA 323–339 (control) at the indicated concentrations for two days, and the culture supernatants were evaluated by cytokine bead array analysis except for IL-4, which was measured by ELISA. […]

CD4 and CD8 T cells = details: cited from earlier work
From the text: In that direction, we sought to create TCR Tg mice specific to Myhc-α 334–352 and made a few observations. […] However, expression of Myhc-α 334–352-specific TCRs in both CD4 and CD8 T cells was not expected. To our knowledge, our Tg model is only the second such example to have been reported, with the earlier example being 1C6 Tg mice specific to myelin olig ...

BALB/c mice = details: immunization with CFA; cited from earlier work
From the text: (§1) Histologically, the disease process can be classified into lymphocytic, neutrophilic, eosinophilic, granulomatous, and giant cell myocarditis. Of these, lymphocytic myocarditis generally occurs with viral infections. Although most myocarditis-affected individuals may spontaneously recover, up to 20% of them can develop DCM, in which autoimmunity is suspected as an underlying mechanism. Although autoantibodies for various antigens—such as cardiac myosin (Myhc), adenine nucleotide translocator (ANT), branched-chain α-ketoacid dehydrogenase kinase (BCKDk), sarcoplasmic/end ...

rats = details: immunization with CFA; cited from earlier work
From the text: as §1

[1] = target: T3, cardiac myosin heavy chain (Myhc)-α peptide on I-Ak (mouse); experiment: multimer staining
T3 peptide: DSAFDVLSFTAEEKAGVYK

## CC(C)C[C@H](NC(=O)[C@@H](NC(=O)[C@H](CC(=O)O)NC(=O)[C@H](Cc1ccccc1)NC(=O)[C@H](C)NC(=O)[C@H](CO)NC(=O)[C@@H](N)CC(=O)O)C(C)C)C(=O)N[C@@H](CO)C(=O)N[C@@H](Cc1ccccc1)C(=O)N[C@H](C(=O)N[C@@H](C)C(=O)N[C@@H](CCC(=O)O)C(=O)N[C@@H](CCC(=O)O)C(=O)N[C@@H](CCCCN)C(=O)N[C@@H](C)C(=O)NCC(=O)N[C@H](C(=O)N[C@@H](Cc1ccc(O)cc1)C(=O)N[C@@H](CCCCN)C(=O)O)C(C)C)[C@@H](C)O [Myhc-α 334–352] (H-DSAFDVLSFTAEEKAGVYK-OH)
IA^k
  IC50: 37.8 ± 10.3 µM
IA^b
  IC50: > 100 µM

## ANT 21–40: adenine nucleotide translocator 21–40 epitope (VSKTAVAPIERVKLLLQVQH; UniProt P48962 21-40, looked up, fragment)
A/J mice
  myocarditis induction in A/J mice (in words): myocarditogenic

## ISQAVHAAHAEINEAGR [OVA 323–339]
Lymphocytes from Tg mice
  cytokine responses (in words): lack of cytokine responses

## MOG 35–55: myelin oligodendrocyte glycoprotein 35–55 (GPGYPIRALVGDEAELPCRIS; UniProt Q61885 35-55, looked up, fragment)
CD4 and CD8 T cells
  T cell stimulation (in words): stimulate both cell types

## Myhc-α 338–348: truncated version of Myhc-α 334–352 (DVLSFTAEEKA; UniProt Q02566 338-348, looked up, fragment)
CD4 and CD8 T cells; A/J
  T cell stimulation by truncated peptide (in words): could stimulate both CD4 and CD8 T cells

## Myhc-α 614–643: myocarditogenic epitope in BALB/c mice (SLKLMATLFSTYASADTGDSGKGKGGKKKG; UniProt Q02566 614-643, looked up, fragment)
BALB/c mice
  myocarditis induction in BALB/c mice (in words): myocarditogenic

## Myhc-α 1304–1320: myocarditogenic epitope in rats (RGKLSYTQQMEDLKRQL; UniProt P02563 1304-1320, looked up, fragment)
rats
  myocarditis induction in rats (in words): myocarditogenic

## SERCA2a 971–990: sarcoplasmic/endoplasmic reticulum Ca2^+ adenosine triphosphatase 2a 971–990 epitope (KISLPVILMDETLKFVARNY; UniProt O55143 971-990, looked up, fragment)
A/J mice
  myocarditis induction in A/J mice (in words): myocarditogenic

## cTNI 105–122: cardiac troponin I 105–122 epitope (VDKVDEERYDVEAKVTKN; UniProt P48787 105-122, looked up, fragment)
A/J mice
  myocarditis induction in A/J mice (in words): myocarditogenic

## β1AR 181–200: β1 adrenergic receptor 181–200 epitope (TVWAISALVSFLPILMHWWR; UniProt P34971 181-200, looked up, fragment)
A/J mice
  myocarditis induction in A/J mice (in words): myocarditogenic

B1: Myhc-α 334–352-specific TCR of T cell hybridoma clone C33 (transgenic TCR of the Myhc-α 334–352 TCR Tg mice) (TCR)
alpha TRAV14-1*02 TRAJ42*01 CDR3: CAASAEGSNAKLTF
beta TRBV2*01 TRBJ2-5*01 CDR3: CASSQSLGQDTQYF
[1]
  binding result: recognises
